Laboratory results from the NIST ThermoML archive (doi:10.1016/j.jct.2016.10.042).
Numbers after ± are expanded uncertainties.

Legend:
[1] = 101 kPa, Liquid, Pycnometric method
[2] = xn = mol fraction of the nth substance listed; settings: 101 kPa, Liquid, Pycnometric method, x1 = 1

| SMILES | mass density ([1]; 293.15 K) | mass density ([1]; 298.15 K) | mass density ([1]; 303.15 K) | mass density ([1]; 308.15 K) | mass density ([1]; 313.15 K) | mass density ([1]; 318.15 K) | mass density ([2]; 293.15 K) | mass density ([2]; 298.15 K) | mass density ([2]; 303.15 K) | mass density ([2]; 308.15 K) | mass density ([2]; 313.15 K) | mass density ([2]; 318.15 K) |
| --- | --- | --- | --- | --- | --- | --- | --- | --- | --- | --- | --- | --- |
| C=CC(=O)OC(C)(C)C [tert-butyl acrylate] | 884.13 ± 1 kg/m3 | 879.66 ± 1 kg/m3 | 875.2 ± 1 kg/m3 | 870.74 ± 1 kg/m3 | 866.28 ± 1 kg/m3 | 861.82 ± 1 kg/m3 | – | – | – | – | – | – |
| C1CCOC1 [tetrahydrofuran] | 887.01 ± 1 kg/m3 | 882.05 ± 1 kg/m3 | 877.1 ± 1 kg/m3 | 872.14 ± 1 kg/m3 | 867.19 ± 1 kg/m3 | 862.23 ± 1 kg/m3 | – | – | – | – | – | – |
| C1CCOC1 [tetrahydrofuran] + C=CC(=O)OC | – | – | – | – | – | – | 887.01 ± 1 kg/m3 | 882.05 ± 1 kg/m3 | 877.1 ± 1 kg/m3 | 872.14 ± 1 kg/m3 | 867.19 ± 1 kg/m3 | 862.23 ± 1 kg/m3 |
| C1CCOC1 [tetrahydrofuran] + C=CC(=O)OC(C)(C)C | – | – | – | – | – | – | 887.01 ± 1 kg/m3 | 882.05 ± 1 kg/m3 | 877.1 ± 1 kg/m3 | 872.14 ± 1 kg/m3 | 867.19 ± 1 kg/m3 | 862.23 ± 1 kg/m3 |
| C1CCOC1 [tetrahydrofuran] + C=CC(=O)OCC | – | – | – | – | – | – | 887.01 ± 1 kg/m3 | 882.05 ± 1 kg/m3 | 877.1 ± 1 kg/m3 | 872.14 ± 1 kg/m3 | 867.19 ± 1 kg/m3 | 862.23 ± 1 kg/m3 |
| C1CCOC1 [tetrahydrofuran] + C=CC(=O)OCCCC | – | – | – | – | – | – | 887.01 ± 1 kg/m3 | 882.05 ± 1 kg/m3 | 877.1 ± 1 kg/m3 | 872.14 ± 1 kg/m3 | 867.19 ± 1 kg/m3 | 862.23 ± 1 kg/m3 |
